Earlier results, collected in patent US6486349B1, “Amide therapeutics and methods for treating inflammatory bowel disease” (Centaur Pharmaceuticals, Inc., priority 1999, dated 2002).

System: senescence-accelerated mice

Which “increase of the life span” value does the source give for `CC(C)(C)/[N+]([O-])=C/c1ccccc1` [PBN, α-phenyl-t-butyl nitrone] here?
The value was “one third”.
